# PubChem BioAssay (NCI)
#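 Step 1: Grow cells in 96-well plates. Step 2: Expose to compound for 48 hours at 5 concentrations. Step 3: Interpolate endpoints linearly; if unreached, use highest concentration. TGI denotes the concentration required for complete inhibition of growth.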
# Columns and labels:
# Assay in all cases: NCI tumour cell line growth inhibition, 48 h
# M19-MEL melanoma = system: M19-MEL melanoma
# A549 NSCLC = system: A549 NSCLC
# DMS 273 small cell lung = system: DMS 273 small cell lung
# COLO 205 colon = system: COLO 205 colon
# MOLT-4 leukemia = system: MOLT-4 leukemia
# HCC-2998 colon = system: HCC-2998 colon
# SK-MEL-28 melanoma = system: SK-MEL-28 melanoma
# SNB-78 CNS = system: SNB-78 CNS
# OVCAR-4 ovarian = system: OVCAR-4 ovarian
# LOX IMVI melanoma = system: LOX IMVI melanoma
# SF-295 CNS = system: SF-295 CNS
# U251 CNS = system: U251 CNS
# MALME-3M melanoma = system: MALME-3M melanoma
# NCI-H23 lung = system: NCI-H23 lung
# DLD-1 colon = system: DLD-1 colon
# HCT-15 colon = system: HCT-15 colon
# SK-MEL-5 melanoma = system: SK-MEL-5 melanoma
# SNB-19 CNS = system: SNB-19 CNS
# HOP-62 NSCLC = system: HOP-62 NSCLC
# CCRF-CEM leukemia = system: CCRF-CEM leukemia
# UACC-62 melanoma = system: UACC-62 melanoma
# NCI-H522 lung = system: NCI-H522 lung
# K-562 leukemia = system: K-562 leukemia
# HT29 colon = system: HT29 colon
# SW-620 colon = system: SW-620 colon
# HOP-18 NSCLC = system: HOP-18 NSCLC
# RXF 393 renal = system: RXF 393 renal
# SNB-75 CNS = system: SNB-75 CNS
# A498 renal = system: A498 renal
# NCI-H226 lung = system: NCI-H226 lung
# OVCAR-8 ovarian = system: OVCAR-8 ovarian
# HL-60(TB) leukemia = system: HL-60(TB) leukemia
# SK-MEL-2 melanoma = system: SK-MEL-2 melanoma
# OVCAR-3 ovarian = system: OVCAR-3 ovarian
# SK-OV-3 ovarian = system: SK-OV-3 ovarian
# SR leukemia = system: SR leukemia
# CAKI-1 renal = system: CAKI-1 renal
# OVCAR-5 ovarian = system: OVCAR-5 ovarian
# 786-0 renal = system: 786-0 renal
# NCI-H460 lung = system: NCI-H460 lung
# DMS 114 small cell lung = system: DMS 114 small cell lung
# UO-31 renal = system: UO-31 renal
# ACHN renal = system: ACHN renal
# LXFL 529 NSCLC = system: LXFL 529 NSCLC
# SN12C renal = system: SN12C renal
# EKVX NSCLC = system: EKVX NSCLC
# M14 melanoma = system: M14 melanoma
# SF-268 CNS = system: SF-268 CNS
# HOP-92 NSCLC = system: HOP-92 NSCLC
# IGROV1 ovarian = system: IGROV1 ovarian
# KM12 colon = system: KM12 colon
# SF-539 CNS = system: SF-539 CNS
# UACC-257 melanoma = system: UACC-257 melanoma
# KM20L2 colon = system: KM20L2 colon
# HCT-116 colon = system: HCT-116 colon
# TK-10 renal = system: TK-10 renal
# RPMI-8226 leukemia = system: RPMI-8226 leukemia
smiles,measurement,setting,value
COc1ccccc1-n1c(C)nc2ccccc2c1=O,TGI,M19-MEL melanoma,> 100 µM
same,TGI,A549 NSCLC,> 100 µM
same,TGI,DMS 273 small cell lung,> 100 µM
same,TGI,COLO 205 colon,> 100 µM
same,TGI,MOLT-4 leukemia,> 100 µM
same,TGI,HCC-2998 colon,> 100 µM
same,TGI,SK-MEL-28 melanoma,> 100 µM
same,TGI,SNB-78 CNS,> 100 µM
same,TGI,OVCAR-4 ovarian,> 100 µM
same,TGI,LOX IMVI melanoma,> 100 µM
same,TGI,SF-295 CNS,> 100 µM
same,TGI,U251 CNS,> 100 µM
same,TGI,MALME-3M melanoma,> 100 µM
same,TGI,NCI-H23 lung,> 100 µM
same,TGI,DLD-1 colon,> 100 µM
same,TGI,HCT-15 colon,> 100 µM
same,TGI,SK-MEL-5 melanoma,> 100 µM
same,TGI,SNB-19 CNS,> 100 µM
same,TGI,HOP-62 NSCLC,> 100 µM
same,TGI,CCRF-CEM leukemia,> 100 µM
same,TGI,UACC-62 melanoma,> 100 µM
same,TGI,NCI-H522 lung,> 100 µM
same,TGI,K-562 leukemia,> 100 µM
same,TGI,HT29 colon,> 100 µM
same,TGI,SW-620 colon,> 100 µM
same,TGI,HOP-18 NSCLC,> 100 µM
same,TGI,RXF 393 renal,> 100 µM
same,TGI,SNB-75 CNS,> 100 µM
same,TGI,A498 renal,> 100 µM
same,TGI,NCI-H226 lung,> 100 µM
same,TGI,OVCAR-8 ovarian,> 100 µM
same,TGI,HL-60(TB) leukemia,> 100 µM
same,TGI,SK-MEL-2 melanoma,> 100 µM
same,TGI,OVCAR-3 ovarian,> 100 µM
same,TGI,SK-OV-3 ovarian,> 100 µM
same,TGI,SR leukemia,> 100 µM
same,TGI,CAKI-1 renal,> 100 µM
same,TGI,OVCAR-5 ovarian,> 100 µM
same,TGI,786-0 renal,> 100 µM
same,TGI,NCI-H460 lung,> 100 µM
same,TGI,DMS 114 small cell lung,> 100 µM
same,TGI,UO-31 renal,> 100 µM
same,TGI,ACHN renal,> 100 µM
same,TGI,LXFL 529 NSCLC,> 100 µM
same,TGI,SN12C renal,> 100 µM
same,TGI,EKVX NSCLC,> 100 µM
same,TGI,M14 melanoma,> 100 µM
same,TGI,SF-268 CNS,> 100 µM
same,TGI,HOP-92 NSCLC,> 100 µM
same,TGI,IGROV1 ovarian,> 100 µM
same,TGI,KM12 colon,> 100 µM
same,TGI,SF-539 CNS,> 100 µM
same,TGI,UACC-257 melanoma,> 100 µM
same,TGI,KM20L2 colon,> 100 µM
same,TGI,HCT-116 colon,> 100 µM
same,TGI,TK-10 renal,> 100 µM
CCOC(=O)C1(c2ccccc2)CCCNCC1 (stereo unspecified),TGI,M19-MEL melanoma,> 100 µM
same,TGI,A549 NSCLC,> 100 µM
same,TGI,DMS 273 small cell lung,> 100 µM
same,TGI,COLO 205 colon,> 100 µM
same,TGI,MOLT-4 leukemia,> 100 µM
same,TGI,HCC-2998 colon,> 100 µM
same,TGI,SK-MEL-28 melanoma,> 100 µM
same,TGI,SNB-78 CNS,> 100 µM
same,TGI,OVCAR-4 ovarian,> 100 µM
same,TGI,LOX IMVI melanoma,> 100 µM
same,TGI,SF-295 CNS,> 100 µM
same,TGI,U251 CNS,> 100 µM
same,TGI,MALME-3M melanoma,> 100 µM
same,TGI,NCI-H23 lung,> 100 µM
same,TGI,DLD-1 colon,> 100 µM
same,TGI,HCT-15 colon,> 100 µM
same,TGI,SK-MEL-5 melanoma,> 100 µM
same,TGI,SNB-19 CNS,> 100 µM
same,TGI,HOP-62 NSCLC,> 100 µM
same,TGI,CCRF-CEM leukemia,> 100 µM
same,TGI,UACC-62 melanoma,> 100 µM
same,TGI,NCI-H522 lung,> 100 µM
same,TGI,K-562 leukemia,> 100 µM
same,TGI,HT29 colon,> 100 µM
same,TGI,SW-620 colon,> 100 µM
same,TGI,HOP-18 NSCLC,> 100 µM
same,TGI,RXF 393 renal,> 100 µM
same,TGI,SNB-75 CNS,> 100 µM
same,TGI,A498 renal,> 100 µM
same,TGI,NCI-H226 lung,> 100 µM
same,TGI,OVCAR-8 ovarian,> 100 µM
same,TGI,HL-60(TB) leukemia,> 100 µM
same,TGI,SK-MEL-2 melanoma,> 100 µM
same,TGI,OVCAR-3 ovarian,> 100 µM
same,TGI,SK-OV-3 ovarian,> 100 µM
same,TGI,SR leukemia,88.8 µM
same,TGI,CAKI-1 renal,> 100 µM
same,TGI,OVCAR-5 ovarian,> 100 µM
same,TGI,786-0 renal,> 100 µM
same,TGI,NCI-H460 lung,> 100 µM
same,TGI,UO-31 renal,> 100 µM
same,TGI,ACHN renal,> 100 µM
same,TGI,LXFL 529 NSCLC,> 100 µM
same,TGI,SN12C renal,> 100 µM
same,TGI,EKVX NSCLC,> 100 µM
same,TGI,M14 melanoma,> 100 µM
same,TGI,SF-268 CNS,> 100 µM
same,TGI,RPMI-8226 leukemia,> 100 µM
same,TGI,HOP-92 NSCLC,> 100 µM
same,TGI,IGROV1 ovarian,> 100 µM
same,TGI,KM12 colon,> 100 µM
same,TGI,UACC-257 melanoma,> 100 µM
same,TGI,KM20L2 colon,> 100 µM
same,TGI,HCT-116 colon,> 100 µM
same,TGI,TK-10 renal,> 100 µM
